The text below walks through data of US20170122958A1, “Enzymes Functional Probes” (University of Dundee, priority 2013, published 2017).

The target of one test is T1, WT GFP-Brd4 (Homo sapiens, UniProt O60885).
T1 construct: full length human GFP-BRD4 transfected into human osteosarcoma cells (U2OS); expressed in transfected cells; host or cells: U2OS human osteosarcoma cells
Nature of the test: FRAP in transfected U2OS cells. It is filed as cell-based. The following applies: WT GFP-Brd4, 1 μM compound.

The target in test [1] is T2, double Leu(94,387)/Ala mutant of GFP-Brd4 (Homo sapiens, UniProt O60885, L387A/L94A).
T2 construct: U2OS cells transfected with full-length human GFP-brd4; expressed in transfected cells; host or cells: U2OS human osteosarcoma cells
The test can be described thus: FRAP in transfected U2OS cells. Type of test: cell-based. The following applies: double Leu(94,387)/Ala mutant GFP-Brd4, 1 μM compound. How it is done: To establish whether selectivity could also be observed within cells, we developed fluorescence recovery after photobleaching (FRAP) assays using full length human GFP-BRD4 transfected into human osteosarcoma cells (U2OS). […] The data shown represent the mean±SEM (n=35-50). Statistical significance was determined by one-tailed t tests: *<0.05; **P<0.01; ***P<0.001; n.s. not significant.
Fluorescence recovery after photobleaching (FRAP) experiments were performed in human osteosarcoma U2OS cells transfected with mammalian expression constructs encoding wild type and mutant GFP chimeras of Brd4. Cells were cultured in DMEM (Gibco) supplemented with fetal bovine serum, Penicillin/Streptamycin and L-Glutamine. Cells were seeded into glass bottom dishes (Willco) to about 40% confluency and transfected with the constructs using Effectene (QIAGEN) at least 18 h before the experiment. […] FRAP studies were performed using a DeltaVision Core mounted on an Olympus IX70 stand with a 60×1.4NA plan apo objective lens equipped with a heated chamber set to 37° C. and a Quantifiable Laser Module (QLM) with 10 mW 488 nm solid state laser delivering a diffraction limited spot to the centre field of view. […] FRAP data was analysed using the SoftWorX software. It was fitted to a 2-dimensional recovery curve using the method of Axelrod as implemented within the software and half-times of recovery were calculated.

Test [2] addresses T3, Brd2 tandem with mutations on both bromodomains (LA-LA) (Homo sapiens, UniProt P25440, L110A/L383A).
T3 construct: containing the first and the second bromodomain, as well as the natural linker between them; His6; SUMO (cleaved yes); made in house; host or cells: E. coli BL21(DE3)
The test can be described thus: ITC of compound into Brd2 tandem construct. It is filed as binding. How it is done:
(§1) Tandem constructs of Brd2 with and without leucine to alanine mutations were expressed and purified for this last part of the project. […] Nevertheless, ITC experiments were performed with four of these constructs, a tandem with no mutation (WT-WT), a tandem with the mutation in the first bromodomain (LA-WT), a tandem with the mutation on the second bromodomain (WT-LA) and a tandem with mutations on both bromodomains (LA-LA). Normal titrations (compound into syringe, protein into sample cell) with compound 11 were performed for this assay. For the WT-WT construct, 300 μM of the compound was injected into a solution of the tandem at 10 μM. For the LA-WT and WT-LA constructs, the compound was injected at 150 μM into 15 μM of the protein and for the LA-LA construct, 150 μM compound was injected into a solution of 10 μM of this tandem construct. The ITC assays were run at 30° C. at 1% DMSO.
(§2) ITC experiments were carried out on a ITC200 instrument from MicroCal™ Experiments were conducted at 3 different temperatures 15° C., 25° C. and 30° C., while stirring at 1000 rpm. Buffers of proteins, peptide and compounds were matched to 20 mM HEPES pH 7.5 at 25° C. and 100 mM NaCl. Frozen protein was buffer exchanged as described for the DSF experiments. Each titration comprised 1 initial injection of 0.4 μl lasting 0.8 s, followed by 19 injections of 2 μl lasting 4 s each at 2 min intervals. The initial injection was discarded during data analysis. Standard and reverse titrations were conducted depending on the binding partners.
(§3) All the data was fitted to a single binding site model using the Microcal LLC ITC200 Origin software provided by the manufacturer to yield enthalpies of binding (ΔH) and binding constants (Kas). Further thermodynamic parameters were calculated from these values (changes in entropy ΔS, changes in free energy AG and dissociation constants (Kds)).

The target of test [3] is T4, Brd2 tandem with the mutation in the first bromodomain (LA-WT) (Homo sapiens, UniProt P25440, L110A).
T4 construct: containing the first and the second bromodomain, as well as the natural linker between them; His6; SUMO (cleaved yes); made in house; host or cells: E. coli BL21(DE3)
T4 sequence (P25440 71-455 L110A limits assumed): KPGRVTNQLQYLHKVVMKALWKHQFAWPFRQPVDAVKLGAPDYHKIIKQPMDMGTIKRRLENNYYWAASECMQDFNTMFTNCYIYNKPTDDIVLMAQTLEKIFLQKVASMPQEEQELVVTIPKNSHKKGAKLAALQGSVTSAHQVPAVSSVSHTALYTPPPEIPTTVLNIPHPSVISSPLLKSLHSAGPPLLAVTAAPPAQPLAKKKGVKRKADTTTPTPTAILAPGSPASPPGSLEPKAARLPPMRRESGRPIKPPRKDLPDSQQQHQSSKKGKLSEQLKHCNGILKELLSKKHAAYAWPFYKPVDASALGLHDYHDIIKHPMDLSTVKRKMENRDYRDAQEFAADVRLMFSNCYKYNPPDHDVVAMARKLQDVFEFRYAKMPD
Nature of the test: ITC of compound into Brd2 tandem construct. It is filed as binding. How it is done:
as §1, §2, §3

The target in test [4] is T5, Brd2 tandem with no mutation (WT-WT) (Homo sapiens, UniProt P25440).
T5 construct: containing the first and the second bromodomain, as well as the natural linker between them; His6; SUMO (cleaved yes); made in house; host or cells: E. coli BL21(DE3)
T5 sequence (P25440 71-455 limits assumed, change not shown): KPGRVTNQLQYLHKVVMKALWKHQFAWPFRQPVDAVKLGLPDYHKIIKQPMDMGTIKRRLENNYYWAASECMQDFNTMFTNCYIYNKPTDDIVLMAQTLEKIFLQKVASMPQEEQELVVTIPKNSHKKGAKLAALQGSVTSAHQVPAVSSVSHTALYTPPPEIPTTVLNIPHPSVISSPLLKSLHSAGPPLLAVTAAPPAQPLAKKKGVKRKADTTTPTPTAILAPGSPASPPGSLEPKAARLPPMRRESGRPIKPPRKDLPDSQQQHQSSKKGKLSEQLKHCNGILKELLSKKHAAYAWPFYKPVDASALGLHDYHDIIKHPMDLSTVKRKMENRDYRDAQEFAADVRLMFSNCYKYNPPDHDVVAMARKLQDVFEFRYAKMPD
Nature of the test: ITC of compound into Brd2 tandem construct. It is filed as binding. How it is done: as §1, §2, §3

T3 sequence (P25440 71-455 L110A/L383A limits assumed): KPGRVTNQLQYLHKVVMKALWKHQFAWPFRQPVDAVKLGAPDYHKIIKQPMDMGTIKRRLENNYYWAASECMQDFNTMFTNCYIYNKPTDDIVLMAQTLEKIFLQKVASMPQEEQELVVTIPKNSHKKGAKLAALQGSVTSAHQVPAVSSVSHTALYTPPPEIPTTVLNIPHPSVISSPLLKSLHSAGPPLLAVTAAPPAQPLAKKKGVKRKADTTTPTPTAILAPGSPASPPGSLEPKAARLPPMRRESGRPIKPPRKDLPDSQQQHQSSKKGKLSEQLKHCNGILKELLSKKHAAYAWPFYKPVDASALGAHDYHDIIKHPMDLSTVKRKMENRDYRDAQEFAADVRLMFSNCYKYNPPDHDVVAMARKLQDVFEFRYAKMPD
Description for WT GFP-Brd4: Fluorescence recovery after photobleaching (FRAP) experiments were performed in human osteosarcoma U2OS cells transfected with mammalian expression constructs encoding wild type and mutant GFP chimeras of Brd4. Cells were cultured in DMEM (Gibco) supplemented with fetal bovine serum, Penicillin/Streptamycin and L-Glutamine. Cells were seeded into glass bottom dishes (Willco) to about 40% confluency and transfected with the constructs using Effectene (QIAGEN) at least 18 h before the experiment. Treatment of cells with 1 μM compounds (in DMSO) was performed 12-15 h before the experiment. Cells without compound treatment were treated with DMSO as a vehicle control at least 15 h before the experiment. DMEM was exchanged for CO2-independent phenol red-free media (Gibco) for the experiment. […] A spot was bleached with a single pulse at 100% laser power for 0.2 s and recovery images were acquired using a coolsnap HQ camera with a 2×2 bin at 0.05 s exposure. […] FRAP data was analysed using the SoftWorX software. It was fitted to a 2-dimensional recovery curve using the method of Axelrod as implemented within the software and half-times of recovery were calculated.

As usually defined, the Kd is a measure of binding affinity in units of concentration. A lower Kd goes with higher affinity. Consider `CC[C@@H](C(=O)OC)[C@@H]1N=C(c2ccc(Cl)cc2)c2cc(OC)ccc2-n2c(C)nnc21` (racemic) [Compound 11, (+−)-methyl (R)-2-((S)-6-(4-chlorophenyl)-8-methoxy-1-methyl-4H-benzo[f][1,2,4]triazolo[4,3-a][1,4]diazepin-4-yl)butanoate], for which the “Fluorescence recovery after photobleaching (recovery time)” value was “no reduction of recovery times relative to vehicle-treated cells” on WT GFP-Brd4 and “recovery times comparable to the iBET control” in test [1]. Besides, the Kd in test [2] is approximately 56 nM; in test [3], approximately 160 nM; in test [4] it was approximately 15800 nM.
